Results reported in US9687529B2, “Method of controlling coagulation” (Duke University, priority 2011, dated 2017).
Several values for one entry are separate records, joined by “and”; a condition that tells them apart may be missing. Equal values may be shown once.

Legend:
[1] = test system: clot formation in whole blood; experiment: Thromboelastography (TEG), whole blood stimulated with tissue factor; type: cell-based, human
Experimental: Blood was drawn from healthy, consented volunteers under a Duke University Institutional Review Board approved protocol and anticoagulated with 3.2% sodium citrate. Whole blood (320 μL) was mixed with anticoagulant (heparin or aptamers) (10 μL) and kaolin (Haemonetics, Niles, Ill.) (10 μL) or CAT PRP reagent (Diagnostica Stago, 0.33 ρM TF final) (10 μL) was added to stimulate clotting. CaCl2 (20 μL) was immediately added to overcome the citrate, the mixture was added to a plain disposable plastic TEG cup (Haemonetics), and the assay was run according to the manufacturer's instructions. Clot formation at 37° C. was measured with a Thromboelastograph Analyzer (Haemonetics, Niles, Ill.) until a stable clot was formed (i.e., a maximum amplitude was reached) or for three hours with the aptamer combinations. The time lag time, α-angle, and maximum amplitude were automatically calculated by the TEG® Analytical Software version 4.2.3 (Haemonetics).
Because kaolin stimulates blood via the intrinsic pathway, it is unlikely that 7S-1 (FVIIa aptamer) would impair clot formation with this type of stimulation; thus, this aptamer was tested in a modified TEG with TF stimulation. CAT platelet rich plasma (PRP) reagent (TF) was diluted to a final concentration of 0.33 ρM TF to stimulate clotting.

human blood = experiment: Ex vivo extracorporeal oxygenator minicircuit with ACT+ monitoring; conditions: human blood in ex vivo minicircuit; average donor baseline 115 seconds; FIG. 25 doses: UFH 5 U/mL, 9.3T 1 μM, 11F7T 2 μM, R9D-14T 5 μM, 11F7T 0.5 μM+R9D-14T 5 μM
Experimental: The extracorporeal minicircuit consisted of a sample line, custom-designed 8 mL Plexiglas® venous reservoir, a mechanical roller pump (MasterFlex®; Cole-Parmer Instrument Co., Vernon Hills, Ill.), and a custom-designed small-volume oxygenator that are all connected by MasterFlex precision silicone tubing (Cole-Parmer Instrument Co.) (de Lange et al, Br J Anaesth 99:177-83 (2007), de Lange et al, J Cardiothorac Surg 3:51 (2008). The 4 mL priming volume oxygenator is comprised of two Plexiglas® shells (12.8 cm×12.8 cm×2.7 cm) that cover a disposable three layer artificial diffusion membrane comprised of hollow polypropylene fibers glued together in a crosswise fashion. The surface area available for gas exchange is 558 cm^2. To prevent heat loss, one of the shells has an integrated heat exchanger, and the temperature was maintained at approximately 33° C. with a circulating water bath system (Gaymar Industries, Orchard Park, N.Y.). A MEAS reusable temperature probe (Model 451, Measurement Specialties Inc., Dayton, Ohio) was inserted into the reservoir to continuously measure the temperature, and an in-line flow probe (2N806 flow probe and T208 volume flowmeter; Transonics Systems, Inc., Ithaca, N.Y.) was used to continuously measure the blood flow. The circuit blood O2 level was maintained at 95% and the CO2 was maintained at 5%.
The minicircuit was primed with phosphate buffered saline (PBS) at a flow rate of 50 mL/min for approximately 30 min. Blood was drawn from healthy, consented volunteers and anticoagulated with 3.2% sodium citrate. Approximately 25 mL of citrated blood was incubated with 500 μL of anticoagulant (i.e., UFH or aptamer) at 37° C. for 5 min. The PBS was drained from the minicircuit, and the blood was added and circulated at a rate of 50 mL/min with 95% O2/5% CO2 at approximately 33° C. […] The venous blood gases were analyzed with a GEM Premier 3000 blood gas/electrolyte analyzer (model 5700; Instrumentation Laboratories, Inc, Lexington, Mass.) to determine the hematocrit, CaCl2, O2, and CO2 levels. […]

Substance | Angle ([1]; RNA 5.00 μM) | Lag-time ([1]; RNA 5.00 μM) | Max. Amplitude ([1]; RNA 5.00 μM) | ACT+ maximal clotting time (human blood) | Angle ([1]; RNA 1.00 μM) | Lag-time ([1]; RNA 1.00 μM) | Max. Amplitude ([1]; RNA 1.00 μM) | Angle ([1]; RNA 2.00 μM) | Lag-time ([1]; RNA 2.00 μM) | Max. Amplitude ([1]; RNA 2.00 μM)
R9D-14T: prothrombin/thrombin aptamer, 58-base truncation of RNA9D-14, SEQ ID NO: 3 (GGCGGTCGATCACACAGTTCAAACGTAATAAGCCAATGTACGAGGCAGACGACTCGCC; 2'-fluoro at CT, RNA at AG, backbone and T or U not given here) [Aptamer R9D-14T] | 15.2 deg and 15.2 ± 2.5 deg | 39.4 min and 39.4 ± 5.0 min | 36.8 mm and 36.8 ± 1.4 mm | 365 s | – | – | – | – | – | –
9.3T: FIXa aptamer, 2'-fluoropyrimidine modified RNA, SEQ ID NO: 1 (AUGGGGACUAUACCGCGUAAUGCUGCCUCCCCAU; 2'-fluoro at CU, RNA at AG, backbone not given here) [Aptamer 9.3T] | – | – | – | had no effect | 66.3 deg and 66.3 ± 1.3 deg | 4.5 min and 4.5 ± 0.5 min | 69.1 mm and 69.1 ± 1.5 mm | – | – | –
11F7T: FXa aptamer, 2'-fluoropyrimidine modified RNA, SEQ ID NO: 2 (GAGAGCCCCAGCGAGAUAAUACUUGGCCCCGCUCUU; 2'-fluoro at CU, RNA at AG, backbone not given here) [Aptamer 11F7T] | – | – | – | 213 s | – | – | – | 21.4 deg and 21.4 ± 7.3 deg | 51.1 min and 51.1 ± 12.2 min | 51.1 mm and 51.1 ± 1.6 mm
